Experimental findings from PubChem BioAssay AID1134 (Emory University Molecular Libraries Screening Center, 2008) are described below.

Each structure is given as a SMILES string. pIC50: −log10 of the molar value.

Experiment [1] concerns the target Ubiquitin carboxyl-terminal hydrolase BAP1 (Homo sapiens) (UniProt Q92560). Nature of the experiment: BAP1 inhibitor potency and UCH-L1 selectivity, dose response, selectivity assay, biochemical, ubiquitin-rhodamine110-glycine substrate (AID 1134). The conditions noted are these: recombinant BAP1, ubiquitin-rhodamine110 cleavage fluorescence kinetic.
Assay in experiment [2]: as above
The conditions noted are these: recombinant BAP1, ubiquitin-rhodamine110 cleavage fluorescence kinetic; measured here: UCH-L1 counter-screen IC50. (In general: Counterscreens check selectivity or assay interference.)

Broadly, the pIC50 is the IC50 on a negative log10 scale, so that one unit is a factor of ten.

Sequence of Ubiquitin carboxyl-terminal hydrolase BAP1 (Homo sapiens) (Q92560 whole entry, looked up): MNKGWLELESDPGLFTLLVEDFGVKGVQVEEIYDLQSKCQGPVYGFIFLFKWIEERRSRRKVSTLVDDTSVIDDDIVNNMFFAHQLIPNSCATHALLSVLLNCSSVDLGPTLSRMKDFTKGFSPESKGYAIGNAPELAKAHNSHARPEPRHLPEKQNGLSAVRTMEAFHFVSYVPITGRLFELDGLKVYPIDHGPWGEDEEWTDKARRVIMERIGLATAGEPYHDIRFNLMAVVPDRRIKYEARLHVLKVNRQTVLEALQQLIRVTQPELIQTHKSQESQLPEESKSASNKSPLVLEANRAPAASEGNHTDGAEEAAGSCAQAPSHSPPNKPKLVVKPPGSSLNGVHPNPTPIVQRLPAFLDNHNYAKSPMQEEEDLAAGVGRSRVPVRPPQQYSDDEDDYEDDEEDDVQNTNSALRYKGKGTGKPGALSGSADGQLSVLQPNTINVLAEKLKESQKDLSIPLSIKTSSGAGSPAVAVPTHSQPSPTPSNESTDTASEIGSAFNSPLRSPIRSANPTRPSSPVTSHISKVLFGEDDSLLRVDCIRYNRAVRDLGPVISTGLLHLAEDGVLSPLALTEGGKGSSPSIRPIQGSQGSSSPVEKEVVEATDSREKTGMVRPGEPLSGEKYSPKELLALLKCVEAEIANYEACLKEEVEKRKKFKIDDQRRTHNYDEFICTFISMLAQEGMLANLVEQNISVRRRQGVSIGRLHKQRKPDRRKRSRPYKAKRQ

For `Cc1sc(NC(=O)CSc2nnc(-c3ccc(O)cc3)o2)c(C#N)c1-c1ccc(F)cc1`, the pIC50 in experiment [1] was 4.82.
As for `Cc1sc(NC(=O)CSc2nnc(Cc3ccc(Cl)cc3)o2)c(C#N)c1-c1ccc(F)cc1`, the negative logarithm of the IC50 (pIC50) in experiment [1] is 5.21.
`Cc1sc(NC(=O)CSc2nnc(-c3ccc(Br)cc3)o2)c(C#N)c1-c1ccc(F)cc1`: the pIC50 in experiment [1] is 6.05; in experiment [2], 4.77.
For the molecule `Cc1sc(NC(=O)CSc2nnc(-c3ccncc3)o2)c(C#N)c1-c1ccc(F)cc1`, the pIC50 in experiment [1] was 5.06.
As for `Cc1sc(NC(=O)CSc2nnc(-c3ccc(Cl)nc3)o2)c(C#N)c1-c1ccc(F)cc1`, the values for the pIC50 in experiment [1] and in experiment [2] were 5.55 and 4.87, respectively.
For the molecule `Cc1sc(NC(=O)CSc2nnc(-c3ccc(O)cc3O)o2)c(C#N)c1-c1ccc(F)cc1`, the pIC50 in experiment [1] is 5.25.
On to `Cc1sc(NC(=O)CSc2nnc(-c3ccc(I)cc3)o2)c(C#N)c1-c1ccc(F)cc1`, for which the negative logarithm of the IC50 (pIC50) was 5.56 in experiment [1] and under 4.00 in experiment [2].
In the case of `Cc1ccccc1Nc1nnc(SCC(=O)Nc2sc(C)c(-c3ccc(F)cc3)c2C#N)s1`, in experiment [1], the pIC50 was 5.06.
In the case of `Cc1sc(NC(=O)CSc2nnc(-c3ccc(N)cc3)o2)c(C#N)c1-c1ccc(F)cc1`, in experiment [1], the pIC50 is 4.40.
In the case of `Cc1ccccc1Nc1nnc(SCC(=O)NCc2ccco2)s1`, the pIC50 in experiment [1] was 4.76.
`O=C(CSc1nnc(-c2ccc(O)cc2)o1)Nc1cc(-c2ccc(F)cc2)[nH]n1`: in experiment [1], the negative-log IC50 (pIC50) was 4.84.
The same measure, in the same setting: with `Cc1sc(NC(=O)CSc2nnc(-c3ccc(O)cc3)o2)c(C#N)c1-c1ccc(Cl)cc1Cl` the figure was 5.43; with `Cc1sc(NC(=O)CSc2nnc(-c3ccc(Cl)cc3)o2)c(C(N)=O)c1-c1ccc(F)cc1`, 5.41.
Still for that read-out and setting: with `O=C(NCc1ccco1)c1cc2nc(-c3ccc4c(c3)OCO4)cc(C(F)(F)F)n2n1` the figure was 4.81.
Regarding `Cc1sc(NC(=O)CSc2nnc(-c3ccc(Cl)cc3)o2)c(C#N)c1-c1ccccc1`, the pIC50 in experiment [1] was 5.73; in experiment [2], 4.86.
For `Cc1sc(NC(=O)CSc2nnc(-c3ccc(O)cc3)o2)c(C#N)c1-c1ccc(CC(C)C)cc1`, in experiment [1], the pIC50 is 5.32.
Take `COC(=O)c1c(NC(=O)CSc2nnc(-c3ccc(O)cc3)o2)sc(C)c1-c1ccc(F)cc1`: the pIC50 in experiment [1] is 5.22.
With `Cc1ccc(-c2c(C)sc(NC(=O)CSc3nnc(-c4ccc(Cl)cc4)o3)c2C#N)cc1C`, the negative logarithm of the IC50 (pIC50) in experiment [1] is 5.28; in experiment [2], 5.12.
Consider `Cc1sc(NC(=O)CSc2n[nH]c(-c3ccc(O)cc3)n2)c(C#N)c1C`, for which the pIC50 in experiment [1] is 4.51.
For the molecule `Cc1sc(NC(=O)CSc2n[nH]c(-c3ccc(O)cc3)n2)c(C#N)c1-c1ccc(F)cc1`, the pIC50 in experiment [1] was 5.66; in experiment [2], 4.99.
On to `Cc1sc(NC(=O)CSc2nnc(N3CCOCC3)o2)c(C#N)c1-c1ccc(F)cc1`, for which the pIC50 in experiment [1] was 4.77.
With `Cc1ccc(-c2c(C)sc(NC(=O)CSc3nnc(-c4ccc(F)cc4)o3)c2C#N)cc1C`, the negative-log IC50 (pIC50) is 5.40 in experiment [1] and 4.58 in experiment [2].
As for `CCOC(=O)c1cnc(SCC(=O)Nc2sc(C)c(C)c2C#N)nc1N`, the negative-log IC50 (pIC50) in experiment [1] is 5.60; in experiment [2] it was 4.35.
The matching figures for `Cc1sc(NC(=O)CSc2nnc(-c3ccc(Cl)cc3)o2)c(C#N)c1-c1ccc(F)cc1`: 6.09 and 4.67.
Take `Cc1sc(NC(=O)CSc2nnc(-c3ccc(Cl)cc3)o2)c(C#N)c1-c1ccc(CC(C)C)cc1`: the pIC50 in experiment [1] is 5.43; in experiment [2] it was 4.69.
As for `Cc1sc(NC(=O)CSc2nccc(-c3ccc(Cl)cc3)n2)c(C#N)c1-c1ccc(F)cc1`, the figures for the negative logarithm of the IC50 (pIC50) in experiment [1] and in experiment [2] were 5.80 and 4.32, respectively.
The corresponding values for `COC(=O)c1c(NC(=O)CSc2nnc(-c3ccc(Cl)cc3)o2)sc(C)c1-c1ccc(F)cc1` are 5.44 and 4.63.
The matching figures for `O=C(CSc1nnc(-c2ccc(Cl)cc2)o1)Nc1cc(-c2ccc(F)cc2)[nH]n1`: 6.07 and 4.28.
The matching figures for `Cc1sc(NC(=O)CSc2nnc(-c3ccc(Cl)cc3)o2)c(C#N)c1-c1ccc(Cl)cc1Cl`: 5.94 and 4.86.
In the case of `Cc1sc(NC(=O)CSc2nnc(-c3cccnc3)o2)c(C#N)c1-c1ccc(F)cc1`, in experiment [1], the negative-log IC50 (pIC50) is 4.45.
Take `Cc1sc(NC(=O)CSc2nccc(-c3ccc(Cl)cc3)n2)c(C#N)c1C`: in experiment [1], the negative-log IC50 (pIC50) is 5.32.
